Test [1] deals with Pseudomonas aeruginosa UI-18: Wild-type (PA-7). Put plainly: MIC determination (CLSI), strain PA-7. It counts as cell-based. The conditions noted are these: strain PA-7, unit assumed. The essentials: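 MIC determined by broth dilution per CLSI M7-A7 guidelines with M100-S18 interpretive standards. Test organism: wild-type Pseudomonas aeruginosa UI-18, designated PA-7.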
The subject of test [2] is Escherichia coli EC-1: VOGEL, mouse virulent. As to the kind of experiment: MIC determination (CLSI), strain EC-1. The class given is cell-based. Particulars: strain EC-1, unit assumed. The essentials: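 The mouse-virulent VOGEL isolate of E. coli, EC-1, served as test organism. Minimum inhibitory concentration was measured by CLSI dilution methodology (M7-A7; M100-S18 standards).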

Setting [3] is: generated in the same manner as in Table 4.

In test [1], `CC(C)c1cccc(-c2ccn(CC[C@](C)(C(=O)NO)S(C)(=O)=O)c(=O)c2)c1` [Example 466] gave a PA-7 (MIC) of 4 µg/mL. Further, in test [2], the EC-1 (MIC) was found to be 2 µg/mL.

In test [1], `CC(C#N)Sc1ccc(-c2ccn(CC[C@](C)(C(=O)NO)S(C)(=O)=O)c(=O)c2)cc1` (stereo partly drawn) [Example 357] had a PA-7 (MIC) of 1 µg/mL. Further, in test [2], the EC-1 (MIC) worked out at 1 µg/mL.

The molecule `C[C@@](CCn1ccc(-c2ccc(OCCC(O)CO)cc2)cc1=O)(C(=O)NO)S(C)(=O)=O` (stereo partly drawn) [Example 366, (2R)-4-{4-[4-(3,4-dihydroxybutoxy)phenyl]-2-oxopyridin-1(2H)-yl}-N-hydroxy-2-methyl-2-(methylsulfonyl)butanamide] yielded a PA-7 (MIC) in test [1] of 16 µg/mL. Moreover, in test [2], the EC-1 (MIC) came to 16 µg/mL.

`CC(CCn1ccc(-c2cc(Cl)cc(Cl)c2)cc1=O)(C(=O)NO)S(C)(=O)=O` (stereo not drawn) [Example 216, 4-[4-(3,5-dichlorophenyl)-2-oxopyridin-1(2H)-yl]-N-hydroxy-2-methyl-2-(methylsulfonyl)butanamide] came in with a PA-7 (MIC) in test [1] of 8 µg/mL. Also, in test [2], the EC-1 (MIC) stood at 4 µg/mL.

For the molecule `C[C@@](CCn1ccc(-c2ccc(-c3ncc(Cl)cn3)cc2)cc1=O)(C(=O)NO)S(C)(=O)=O` [Example 458, (2R)-4-{4-[4-(5-chloropyrimidin-2-yl)phenyl]-2-oxopyridin-1(2H)-yl}-N-hydroxy-2-methyl-2-(methylsulfonyl)butanamide], the PA-7 (MIC) in test [1] turned out to be 0.5 µg/mL. Moreover, the EC-1 (MIC) in test [2] is 0.06 µg/mL.

In turn, `C[C@@](CCn1ccc(-c2c(F)cccc2F)cc1=O)(C(=O)NO)S(C)(=O)=O` [Example 353] returned a PA-7 (MIC) in test [1] of 1 µg/mL. For the same molecule, the EC-1 (MIC) in test [2] was determined as 4 µg/mL.

The molecule `CC(CCn1ccc(-c2ccccc2C(F)(F)F)cc1=O)(C(=O)NO)S(C)(=O)=O` (stereo not drawn) [Example 183, N-hydroxy-2-methyl-2-(methylsulfonyl)-4-{2-oxo-4-[2-(trifluoromethyl)phenyl]pyridin-1(2H)-yl}butanamide] came in with a PA-7 (MIC) in test [1] (setting [3]) of 32 µg/mL. This molecule displayed an EC-1 (MIC) in test [2] (setting [3]) of 32 µg/mL.

Regarding `COCc1ccccc1-c1ccn(CCC(C)(C(=O)NO)S(C)(=O)=O)c(=O)c1` (stereo not drawn) [Example 191, N-hydroxy-4-{4-[2-(methoxymethyl)phenyl]-2-oxopyridin-1(2H)-yl}-2-methyl-2-(methylsulfonyl)butanamide], the PA-7 (MIC) in test [1] is over 64 µg/mL. Also, the EC-1 (MIC) in test [2] was over 64 µg/mL.

`Cc1c(-c2ccc(C#N)cc2)ccn(CC[C@](C)(C(=O)NO)S(C)(=O)=O)c1=O` [Example 398, (2R)-4-[4-(4-cyanophenyl)-3-methyl-2-oxopyridin-1(2H)-yl]-N-hydroxy-2-methyl-2-(methylsulfonyl)butanamide] showed a PA-7 (MIC) in test [1] of 2 µg/mL. Also, the EC-1 (MIC) in test [2] came to 4 µg/mL.

As for `Cc1cn(CCC(C)(C(=O)NO)S(C)(=O)=O)c(=O)cc1-c1ccccc1` (stereo not drawn) [Example 284, N-hydroxy-2-methyl-4-(5-methyl-2-oxo-4-phenylpyridin-1(2H)-yl)-2-(methylsulfonyl)butanamide], the PA-7 (MIC) in test [1] turned out to be 64 µg/mL. This molecule also showed an EC-1 (MIC) in test [2] of 32 µg/mL.

For the molecule `Cc1nnc(C)n1-c1ccc(-c2ccn(CC[C@](C)(C(=O)NO)S(C)(=O)=O)c(=O)c2)cc1` [Example 382, (2R)-4-{4-[4-(3,5-dimethyl-4H-1,2,4-triazol-4-yl)phenyl]-2-oxopyridin-1(2H)-yl}-N-hydroxy-2-methyl-2-(methylsulfonyl)butanamide], the PA-7 (MIC) in test [1] is over 64 µg/mL. The EC-1 (MIC) in test [2] is over 64 µg/mL.

`CC(CCn1ccc(-c2ccccc2)cc1=O)(C(=O)NO)S(C)(=O)=O` (stereo not drawn) [Example 98, N-hydroxy-2-methyl-2-(methylsulfonyl)-4-(2-oxo-4-phenylpyridin-1(2H)-yl)butanamide] yielded a PA-7 (MIC) in test [1] (setting [3]) of 32 µg/mL. For the same molecule, the EC-1 (MIC) in test [2] (setting [3]) worked out at 64 µg/mL.

In test [1], `CC(CCn1ccc(-c2ccc3ccncc3c2)cc1=O)(C(=O)NO)S(C)(=O)=O` (stereo not drawn) [Example 261, N-hydroxy-4-(4-isoquinolin-7-yl-2-oxopyridin-1(2H)-yl)-2-methyl-2-(methylsulfonyl)butanamide] yielded a PA-7 (MIC) of 4 µg/mL. The EC-1 (MIC) in test [2] was found to be 8 µg/mL.

`C[C@@](CCn1ccc(-c2ccc(-c3ccccn3)cc2)cc1=O)(C(=O)NO)S(C)(=O)=O` [Example 374, (2R)-N-hydroxy-2-methyl-2-(methylsulfonyl)-4-[2-oxo-4-(4-pyridin-2-ylphenyl)pyridin-1(2H)-yl]butanamide] yielded a PA-7 (MIC) in test [1] of 1 µg/mL. Moreover, the EC-1 (MIC) in test [2] came to 0.25 µg/mL.

Turning to `CC(CCn1ccc(-c2cc(F)ccc2O)cc1=O)(C(=O)NO)S(C)(=O)=O` (stereo not drawn) [Example 117, 4-[4-(5-fluoro-2-hydroxyphenyl)-2-oxopyridin-1(2H)-yl]-N-hydroxy-2-methyl-2-(methylsulfonyl)butanamide], in test [1] (setting [3]), the PA-7 (MIC) is over 64 µg/mL. The same molecule yielded an EC-1 (MIC) in test [2] (setting [3]) of over 64 µg/mL.

The molecule `CC(CCn1ccc(-c2ccc(OCc3ccncc3)cc2)cc1=O)(C(=O)NO)S(C)(=O)=O` (stereo not drawn) [Example 268, N-hydroxy-2-methyl-2-(methylsulfonyl)-4-{2-oxo-4-[4-(pyridin-4-ylmethoxy)phenyl]pyridin-1(2H)-yl}butanamide] returned a PA-7 (MIC) in test [1] of 2 µg/mL. Also, in test [2], the EC-1 (MIC) was 1 µg/mL.

The molecule `CC(CCn1ccc(-c2ccc(Br)cc2F)cc1=O)(C(=O)NO)S(C)(=O)=O` (stereo not drawn) [Example 283, 4-[4-(4-bromo-2-fluorophenyl)-2-oxopyridin-1(2H)-yl]-N-hydroxy-2-methyl-2-(methylsulfonyl)butanamide] registered a PA-7 (MIC) in test [1] of 1 µg/mL. In test [2], this molecule came in with an EC-1 (MIC) of 0.25 µg/mL.

Consider `Cc1cnc(-c2ccc(-c3ccn(CC[C@](C)(C(=O)NO)S(C)(=O)=O)c(=O)c3)cc2)nc1` [Example 461], for which, in test [1], the PA-7 (MIC) stood at 1 µg/mL. In addition, the EC-1 (MIC) in test [2] came to 0.125 µg/mL.

On to `Cc1ccnc(-c2ccc(-c3ccn(CC[C@](C)(C(=O)NO)S(C)(=O)=O)c(=O)c3)cc2)n1` [Example 375, (2R)-N-hydroxy-2-methyl-4-{4-[4-(4-methylpyrimidin-2-yl)phenyl]-2-oxopyridin-1(2H)-yl}-2-(methylsulfonyl)butanamide], for which the PA-7 (MIC) in test [1] came to 4 µg/mL. In test [2], the EC-1 (MIC) was found to be 0.5 µg/mL.

As for `C[C@@](CCn1ccc(-c2ccc(OCC#N)cc2)cc1=O)(C(=O)NO)S(C)(=O)=O` [Example 333, (2R)-4-{4-[4-(cyanomethoxy)phenyl]-2-oxopyridin-1(2H)-yl}-N-hydroxy-2-methyl-2-(methylsulfonyl)butanamide], the PA-7 (MIC) in test [1] was found to be 8 µg/mL. The molecule further displayed an EC-1 (MIC) in test [2] of 16 µg/mL.

`Cc1nncn1-c1ccc(-c2ccn(CC[C@](C)(C(=O)NO)S(C)(=O)=O)c(=O)c2)cc1` [Example 383, (2R)-N-hydroxy-2-methyl-2-(methylsulfonyl)-4-{4-[4-(3-methyl-4H-1,2,4-triazol-4-yl)phenyl]-2-oxopyridin-1(2H)-yl}butanamide] gave a PA-7 (MIC) in test [1] of over 64 µg/mL. This molecule also yielded an EC-1 (MIC) in test [2] of over 64 µg/mL.

With `C[C@@](CCn1ccc(-c2ccc3ncc(F)cc3c2)cc1=O)(C(=O)NO)S(C)(=O)=O` [Example 316, (2R)-4-[4-(3-fluoroquinolin-6-yl)-2-oxopyridin-1(2H)-yl]-N-hydroxy-2-methyl-2-(methylsulfonyl)butanamide], the PA-7 (MIC) in test [1] is 2 µg/mL. The same molecule yielded an EC-1 (MIC) in test [2] of 4 µg/mL.

The molecule `Cc1cc(-c2ccccc2)cc(=O)n1CCC(C)(C(=O)NO)S(C)(=O)=O` (stereo not drawn) [Example 220, N-hydroxy-2-methyl-4-(6-methyl-2-oxo-4-phenylpyridin-1(2H)-yl)-2-(methylsulfonyl)butanamide] yielded a PA-7 (MIC) in test [1] of over 64 µg/mL. In test [2], this molecule had an EC-1 (MIC) of over 64 µg/mL.

In test [1], `C[C@@](CCn1ccc(-c2cc(Cl)cc(Cl)c2)cc1=O)(C(=O)NO)S(C)(=O)=O` [Example 336, (2R)-4-[4-(3,5-dichlorophenyl)-2-oxopyridin-1(2H)-yl]-N-hydroxy-2-methyl-2-(methylsulfonyl)butanamide] gave a PA-7 (MIC) of 8 µg/mL. The molecule also gave an EC-1 (MIC) in test [2] of 4 µg/mL.

`COC1(c2ccc(-c3ccn(CC[C@](C)(C(=O)NO)S(C)(=O)=O)c(=O)c3)cc2)CCC1` [Example 352, (2R)-N-hydroxy-4-{4-[4-(1-methoxycyclobutyl)phenyl]-2-oxopyridin-1(2H)-yl}-2-methyl-2-(methylsulfonyl)butanamide]: in test [1], the PA-7 (MIC) stood at 8 µg/mL. The molecule further gave an EC-1 (MIC) in test [2] of 2 µg/mL.

Turning to `CC(=O)c1ccc(-c2ccn(CCC(C)(C(=O)NO)S(C)(=O)=O)c(=O)c2)s1` (stereo not drawn) [Example 167, 4-[4-(5-acetyl-2-thienyl)-2-oxopyridin-1(2H)-yl]-N-hydroxy-2-methyl-2-(methylsulfonyl)butanamide], the PA-7 (MIC) in test [1] (setting [3]) came out at 16 µg/mL. The same molecule came in with an EC-1 (MIC) in test [2] (setting [3]) of 16 µg/mL.

On to `CC(CCn1ccc(-c2cccc(Cl)c2)cc1=O)(C(=O)NO)S(C)(=O)=O` (stereo not drawn) [Example 114, 4-[4-(3-chlorophenyl)-2-oxopyridin-1(2H)-yl]-N-hydroxy-2-methyl-2-(methylsulfonyl)butanamide], for which the PA-7 (MIC) in test [1] (setting [3]) stood at 4 µg/mL. In test [2] (setting [3]), this molecule displayed an EC-1 (MIC) of 2 µg/mL.

As to `CC(CCn1ccc(-c2ccc(C#N)s2)cc1=O)(C(=O)NO)S(C)(=O)=O` (stereo not drawn) [Example 149, 4-[4-(5-cyano-2-thienyl)-2-oxopyridin-1(2H)-yl]-N-hydroxy-2-methyl-2-(methylsulfonyl)butanamide], the PA-7 (MIC) in test [1] (setting [3]) was 16 µg/mL. Besides, the EC-1 (MIC) in test [2] (setting [3]) came to 16 µg/mL.

Regarding `COc1ccc(-c2ccn(CC[C@](C)(C(=O)NO)S(C)(=O)=O)c(=O)c2)cc1C` [Example 346, (2R)-N-hydroxy-4-[4-(4-methoxy-3-methylphenyl)-2-oxopyridin-1(2H)-yl]-2-methyl-2-(methylsulfonyl)butanamide], the PA-7 (MIC) in test [1] was found to be 0.5 µg/mL. In addition, the EC-1 (MIC) in test [2] is 0.5 µg/mL.

In test [1], `CC(CCn1ccc(-c2ccc3cc(CO)ccc3c2)cc1=O)(C(=O)NO)S(C)(=O)=O` (stereo not drawn) [Example 309, N-hydroxy-4-{4-[6-(hydroxymethyl)-2-naphthyl]-2-oxopyridin-1(2H)-yl}-2-methyl-2-(methylsulfonyl)butanamide] displayed a PA-7 (MIC) of 4 µg/mL. The molecule further yielded an EC-1 (MIC) in test [2] of 1 µg/mL.

Source of the values: US8846933B2, “N-link hydroxamic acid derivatives useful as antibacterial agents” (Pfizer Inc., priority 2009, dated 2014).
